Assay results from US9180115B2, “Cyclohexylamines” (Asana Biosciences, LLC, priority 2011, dated 2015).
Each block holds one compound with its values, some of them ahead of it.

System: sodium channel response in hTRPV1-N1E115 cells
Test: FLIPR membrane potential assay of sodium channel response in hTRPV1-N1E115 cells with or without heat (47° C.) activation
Assay type: cell-based
Settings: for hTRPV1-N1E Nav 0.1 mM (% inhibition) 25° C. / hTRPV1-N1E Nav 1 mM (% inhibition) 25° C.: 25° C. (no heat activation); for IC50: read-out: hTRPV1-N1E IC50 (μM) 47° C.; for hTRPV1-N1E Nav 0.1 mM (% inhibition) 47° C. / hTRPV1-N1E Nav 1 mM (% inhibition) 47° C.: 47° C. (heat activated)
Description: In one embodiment, a modified FLIPR® (Fluorometric Imaging Plate Reader) based assay system was developed which is capable of discriminating between non-specific versus hTRPV1-mediated entry of test compounds. Advantageously, the assay system utilizes heat activated opening of hTRPV1 channels followed by an assessment of internal sodium channel block. The assay allows a permanently charged compound to selectively enter through opened hTRPV1 channels and that compound's potency in inhibiting sodium channels from the cytoplasm side of the same cell can be assessed and quantified.
The test compounds are diluted in the Assay Buffer and added to each well of a specific 384-well ‘compound plate’, which serves as a source plate for compound addition using the FLIPR® platform. The concentration of compounds in the compound-plate was adjusted to achieve the desired final concentration when added to the cells in the ‘cell-plate’. After completion of the dye incubation period, the dye loaded cell-plates and the compound source plates are inserted into the FLIPR® Tetra device with a 384 FLIPR® tip box (Molecular Devices, Inc.) according to manufacturer's instructions. The compounds are robotically added to the dye loaded cell-plates using software integral to the FLIPR® Tetra instrument.
Immediately following compound addition, hTRPV1 is activated, in one of the duplicate cell plates, by heating. Specifically, entire multi-well plate containing the compound-cells mixture is incubated at 47° C. for 10 minutes, after which they are returned to room temperature (about 25° C.) for a further 30 minutes. Heat activation of hTRPV1 was omitted from the replicate cell plate which was simply maintained at room temperature for the entire 40 minutes.
A membrane potential response is elicited in the dye- and compound-loaded cells by the addition of veratridine which is a known sodium channel ‘agonist’. As illustrated in an example herein, an agonist plate containing veratridine (Sigma) is prepared in advance and is inserted into suitable devices such as, e.g., the FLIPR® TETRA device for a “2nd addition” as instructed by the manufacturer. The concentration of veratridine in the ‘agonist plate’ was adjusted to achieve a final concentration of 100 μM when added to the cells in the cell-plate. Final concentrations of veratridine greater or lesser than 100 μM may also be used but the signal measured by the FLIPR® TETRA device or another suitable device may vary accordingly.
The exposure of the cells in the cell-plate to veratridine induces sodium channels in the cells to open and the resulting ion flux produces a membrane potential depolarization that is detected as a fluorescence signal by the FLIPR® Tetra Device. The activity of test compounds is determined by their ability to attenuate the veratridine-induced fluorescence signal, the most promising compounds are those that show an enhanced activity in the heat-activated cell plate over the non-heat-activated cell plate. This differential activity reflects enhanced compound uptake via the heat activated and open hTRPV1 channels and rests on the fact that sodium channel block requires test compounds to act from the cytoplasmic side of the cell membrane.
In vitro assays were developed for assessing the inhibition of sodium channel response with compounds following stimulation by heat (47° C.) in cells expressing hTRPV1.
(v) Membrane potential Assay to Assess Sodium Channel Function in hTRPV1-Expressing Cells • Cells were plated at 5000 per 50 μL [DMEM+10% FBS+300 μg/mL H\hygromycin] per well, in a 384 clear bottom poly-D-lysine coated plate and incubated at 37° C. and 5% CO2 for 48 hours. On the day of the assay, media were discarded gently and 30 μL of the dye [FMP blue dye was prepared in assay buffer] per well was added and dye-loading was allowed to proceed for 20 min at room temperature. […]

IC50 (47° C.): 10 to 100 µM
Compound: Cc1cccc(C)c1C(=O)O[C@@H](C)C[N+](C)(C)C1CCCCC1.[I-] [Example 23, (S)-N-[2-((2,6-Dimethylbenzoyl)oxy)propyl]-N,N-dimethyl-cyclohexanaminium iodide]
hTRPV1-N1E Nav 0.1 mM (% inhibition) 25° C.: 38 (N = 4) %
hTRPV1-N1E Nav 1 mM (% inhibition) 25° C.: 76 (N = 4) %

IC50 (47° C.): 100 to 1000 µM
Compound: CC(C[N+](C)(C)C1CCCCC1)OC(=O)c1ccc(Cl)cc1Cl.[I-] (centres unmarked) [Example 10, N-[2-((2,4-Dichlorobenzoyl)oxy)propyl]-N,N-dimethyl-cyclohexanaminium iodide]
hTRPV1-N1E Nav 0.1 mM (% inhibition) 25° C.: 10 (N = 4) %
hTRPV1-N1E Nav 0.1 mM (% inhibition) 47° C.: 59 (N = 4) %
hTRPV1-N1E Nav 1 mM (% inhibition) 25° C.: 61 (N = 4) %
hTRPV1-N1E Nav 1 mM (% inhibition) 47° C.: 95 (N = 4) %

IC50 (47° C.): 10 to 100 µM
Compound: Cc1cccc(C)c1C(=O)O[C@H](C)C[N+](C)(C)C1CCCCC1.[I-] [Example 24, (R)-N-[2-((2,6-Dimethylbenzoyl)oxy)propyl]-N,N-dimethyl-cyclohexanaminium iodide]
hTRPV1-N1E Nav 0.1 mM (% inhibition) 25° C.: 22 (N = 4) %
hTRPV1-N1E Nav 1 mM (% inhibition) 25° C.: 81 (N = 4) %

Compound: CC(C[N+](C)(C)C1CCCCC1)OC(=O)c1ccsc1.[I-] (centres unmarked) [Example 33, N,N-Dimethyl-N-[2-((thiophene-3-carbonyl)oxy)propyl] cyclohexanaminium iodide]
hTRPV1-N1E Nav 0.1 mM (% inhibition) 25° C.: 3 (N = 4) %
hTRPV1-N1E Nav 0.1 mM (% inhibition) 47° C.: 36 (N = 4) %
hTRPV1-N1E Nav 1 mM (% inhibition) 25° C.: 23 (N = 4) %
hTRPV1-N1E Nav 1 mM (% inhibition) 47° C.: 57 (N = 4) %

IC50 (47° C.): 100 to 1000 µM
Compound: CC(C[N+](C)(C)C1CCCCC1)OC(=O)c1ccc(C(F)(F)F)cc1.[I-] (centres unmarked) [Example 21, N,N-Dimethyl-N-[2-((4-(trifluoromethyl)benzoyl)oxy)propyl] cyclohexanaminium iodide]
hTRPV1-N1E Nav 0.1 mM (% inhibition) 25° C.: 11 (N = 4) %
hTRPV1-N1E Nav 0.1 mM (% inhibition) 47° C.: 57 (N = 4) %
hTRPV1-N1E Nav 1 mM (% inhibition) 25° C.: 35 (N = 4) %
hTRPV1-N1E Nav 1 mM (% inhibition) 47° C.: 96 (N = 4) %

IC50 (47° C.): 100 to 1000 µM
Compound: CC(C[N+](C)(C)C1CCCCC1)OC(=O)c1ccc(F)cc1C(F)(F)F.[I-] (centres unmarked) [Example 15, N-[2-((4-Fluoro-2-(trifluoromethyl)benzoyl)oxy)propyl]-N,N-dimethyl-cyclohexanaminium iodide]
hTRPV1-N1E Nav 0.1 mM (% inhibition) 25° C.: 6 (N = 4) %
hTRPV1-N1E Nav 0.1 mM (% inhibition) 47° C.: 45 (N = 4) %
hTRPV1-N1E Nav 1 mM (% inhibition) 25° C.: 59 (N = 4) %
hTRPV1-N1E Nav 1 mM (% inhibition) 47° C.: 92 (N = 4) %

IC50 (47° C.): 10 to 100 µM
Compound: Cc1cc(C)c(C(=O)O[C@@H](C)C[N+](C)(C)C2CCCCC2)c(C)c1.[I-] [Example 22, (S)-N,N-Dimethyl-N-[2-((2,4,6-trimethylbenzoyl)oxy)propyl] cyclohexanaminium iodide]
hTRPV1-N1E Nav 0.1 mM (% inhibition) 25° C.: 33 (N = 4) %
hTRPV1-N1E Nav 1 mM (% inhibition) 25° C.: 91 (N = 4) %

IC50 (47° C.): 10 to 100 µM
Compound: Cc1cccc(C)c1C(=O)OC(C)C[N+](C)(C)C1CCC(C)CC1.[I-] (centres unmarked) [Example 36, N-[2-((2,6-Dimethylbenzoyl)oxy)propyl]-N,N,4-trimethylcyclo-hexanaminium iodide]
hTRPV1-N1E Nav 0.1 mM (% inhibition) 25° C.: 50 (N = 4) %
hTRPV1-N1E Nav 0.1 mM (% inhibition) 47° C.: 83 (N = 4) %
hTRPV1-N1E Nav 1 mM (% inhibition) 25° C.: 84 (N = 4) %
hTRPV1-N1E Nav 1 mM (% inhibition) 47° C.: 95 (N = 4) %

Compound: CC(C[N+](C)(C)C1CCCCC1)OC(=O)c1ccccc1F.[I-] (centres unmarked) [Example 8, N-[2-((2-Fluorobenzoyl)oxy)propyl]-N,N-dimethyl-cyclohexanaminium iodide]
hTRPV1-N1E Nav 0.1 mM (% inhibition) 25° C.: 14 (N = 4) %
hTRPV1-N1E Nav 0.1 mM (% inhibition) 47° C.: 38 (N = 4) %
hTRPV1-N1E Nav 1 mM (% inhibition) 25° C.: 22 (N = 4) %
hTRPV1-N1E Nav 1 mM (% inhibition) 47° C.: 53 (N = 4) %

IC50 (47° C.): 10 to 100 µM
Compound: CC(C[N+](C)(C)C1CCCCC1)OC(=O)c1cc(Cl)cc(Cl)c1.[I-] (centres unmarked) [Example 19, N-[2-((3,5-Dichlorobenzoyl)oxy)propyl]-N,N-dimethyl-cyclohexanaminium iodide]
hTRPV1-N1E Nav 0.1 mM (% inhibition) 25° C.: 25 (N = 4) %
hTRPV1-N1E Nav 1 mM (% inhibition) 25° C.: 12 (N = 4) %
hTRPV1-N1E Nav 1 mM (% inhibition) 47° C.: 52 (N = 4) %

IC50 (47° C.): 10 to 100 µM
Compound: Cc1cc(C)c(C(=O)O[C@H](C)C[N+](C)(C)C2CCCCC2)c(C)c1.[I-] [Example 25, (R)-N,N-Dimethyl-N-[2-((2,4,6-trimethylbenzoyl)oxy)propyl] cyclohexanaminium iodide]
hTRPV1-N1E Nav 0.1 mM (% inhibition) 25° C.: 48 (N = 4) %
hTRPV1-N1E Nav 1 mM (% inhibition) 25° C.: 89 (N = 4) %

Compound: Cc1ccsc1C(=O)OC(C)C[N+](C)(C)C1CCCCC1.[I-] (centres unmarked) [Example 37, N,N-Dimethyl-N-[2-((3-methylthiophene-2-carbonyl)oxy)propyl] cyclohexanaminium iodide]
hTRPV1-N1E Nav 0.1 mM (% inhibition) 25° C.: 15 (N = 4) %
hTRPV1-N1E Nav 0.1 mM (% inhibition) 47° C.: 31 (N = 4) %
hTRPV1-N1E Nav 1 mM (% inhibition) 25° C.: 20 (N = 4) %
hTRPV1-N1E Nav 1 mM (% inhibition) 47° C.: 70 (N = 4) %

IC50 (47° C.): 10 to 100 µM
Compound: CC(C[N+](C)(C)C1CCCCC1)OC(=O)c1ccc(C(C)C)cc1.[I-] (centres unmarked) [Example 4, N-[2-((4-isopropylbenzoyl)oxy)propyl]-N,N-dimethylcyclohexanaminium iodide]
hTRPV1-N1E Nav 0.1 mM (% inhibition) 25° C.: 24 (N = 4) %
hTRPV1-N1E Nav 0.1 mM (% inhibition) 47° C.: 86 (N = 4) %

Compound: CCc1ccccc1C(=O)OC(C)C[N+](C)(C)C1CCCCC1.[I-] (centres unmarked) [Example 44, N-[2-((2-Ethylbenzoyl)oxy)propyl]-N,N-dimethylcyclo-hexanaminium iodide]
hTRPV1-N1E Nav 0.1 mM (% inhibition) 25° C.: 56 (N = 4) %
hTRPV1-N1E Nav 0.1 mM (% inhibition) 47° C.: 89 (N = 4) %
hTRPV1-N1E Nav 1 mM (% inhibition) 25° C.: 81 (N = 4) %
hTRPV1-N1E Nav 1 mM (% inhibition) 47° C.: 96 (N = 4) %

Compound: CC(C[N+](C)(C)C1CCCCC1)OC(=O)c1cccn1C.[I-] (centres unmarked) [Example 34, N,N-Dimethyl-N-[2-((1-methyl-1H-pyrrole-2-carbonyl)oxy)propyl] cyclohexanaminium iodide]
hTRPV1-N1E Nav 0.1 mM (% inhibition) 25° C.: 35 (N = 4) %
hTRPV1-N1E Nav 0.1 mM (% inhibition) 47° C.: 36 (N = 4) %
hTRPV1-N1E Nav 1 mM (% inhibition) 25° C.: 35 (N = 4) %
hTRPV1-N1E Nav 1 mM (% inhibition) 47° C.: 55 (N = 4) %

Compound: CC[N+](CC)(CC(C)OC(=O)c1ccccc1)C1CCCCC1.[Cl-] (centres unmarked) [Example 3, N-[2-(benzoyloxy)propyl]-N,N-diethylcyclohexanaminium chloride]
hTRPV1-N1E Nav (% inhibition) 25° C., 0.5 mM (0.5 mM, 25° C.): 14 (N = 2, %
hTRPV1-N1E Nav (% inhibition) 47° C., 0.5 mM (0.5 mM, 47° C.): 19 (N = 2, %
hTRPV1-N1E Nav (% inhibition) 25° C., 5 mM (5 mM, 25° C.): 52 (N = 2, %
hTRPV1-N1E Nav (% inhibition) 47° C., 5 mM (5 mM, 47° C.): 67 (N = 2, %

IC50 (47° C.): 10 to 100 µM
Compound: Cc1cc(C)c(C(=O)OCC[N+](C)(C)C2CCCCC2)c(C)c1.[I-] [Example 41, N-[2-((2,4,6-Trimethylbenzoyl)oxy)ethyl]-N,N-dimethylcyclo-hexanaminium iodide]
hTRPV1-N1E Nav 0.1 mM (% inhibition) 25° C.: 13 (N = 4) %
hTRPV1-N1E Nav 0.1 mM (% inhibition) 47° C.: 66 (N = 4) %
hTRPV1-N1E Nav 1 mM (% inhibition) 25° C.: 22 (N = 4) %
hTRPV1-N1E Nav 1 mM (% inhibition) 47° C.: 89 (N = 4) %

Compound: Cc1cccc(C)c1C(=O)OCC[N+](C)(C)C1CCCCC1.[I-] [Example 40, N-[2-((2,6-Dimethylbenzoyl)oxy)ethyl]-N,N-dimethylcyclo-hexanaminium iodide]
hTRPV1-N1E Nav 0.1 mM (% inhibition) 25° C.: 10 (N = 4) %
hTRPV1-N1E Nav 0.1 mM (% inhibition) 47° C.: 43 (N = 4) %
hTRPV1-N1E Nav 1 mM (% inhibition) 25° C.: 12 (N = 4) %
hTRPV1-N1E Nav 1 mM (% inhibition) 47° C.: 80 (N = 4) %

IC50 (47° C.): 100 to 1000 µM
Compound: CC(C[N+](C)(C)C1CCCCC1)OC(=O)c1cccc(C(F)(F)F)c1.[I-] (centres unmarked) [Example 16, N,N-Dimethyl-N-[2-((3-(trifluoromethyl)benzoyl)oxy)propyl] cyclohexanaminium iodide]
hTRPV1-N1E Nav 0.1 mM (% inhibition) 25° C.: 31 (N = 4) %
hTRPV1-N1E Nav 0.1 mM (% inhibition) 47° C.: 60 (N = 4) %
hTRPV1-N1E Nav 1 mM (% inhibition) 25° C.: 50 (N = 4) %
hTRPV1-N1E Nav 1 mM (% inhibition) 47° C.: 83 (N = 4) %
